Measurements reported in patent US20090156518A1, “STABLE PHARMACEUTICAL COMPOSITION COMPRISING BETA-LACTAM ANTIBIOTIC AND BUFFER” (priority 2006, published 2009).

Experiment: amounts of β-lactam antibiotic, β-lactamase inhibitor (C18 reverse-phase LC, UV-VIS) and aminoglycoside (HPLC-ELSD) in solution over time
Assay type: physicochemical

Q: With `CO/N=C(\C(=O)N[C@@H]1C(=O)N2C(C(=O)O)=C(CSc3nc(C)c(CC(=O)O)s3)CS[C@H]12)c1csc(N)n1` [Cefodizime sodium] as the molecule, how does the “amount of component as percentage with respect to the amount at the initial time” value (from here on “amount of component as percentage”) (Example 12: freeze-dried cefodizime sodium, citrate pH 6.75, 7 days 0° C., in 100 mL 5% fructose + etimicin sulfate 200 mg, Time 0 h) read?
A: 99.01%

Q: What about the “amount of component as percentage” value (Example 12: freeze-dried cefodizime sodium, citrate pH 6.75, 7 days 0° C., in 100 mL 5% fructose + etimicin sulfate 200 mg, Time 1 h) of the same molecule?
A: 103.8%

Q: What about the “amount of component as percentage” value (Example 12: freeze-dried cefodizime sodium, citrate pH 6.75, 7 days 0° C., in 100 mL 5% fructose + etimicin sulfate 200 mg, Time 2 h) of the same molecule?
A: 98.33%

Q: What about the “amount of component as percentage” value (Example 12: freeze-dried cefodizime sodium, citrate pH 6.75, 7 days 0° C., in 100 mL 5% fructose + etimicin sulfate 200 mg, Time 4 h) of the same molecule?
A: 98.99%

Q: And the “amount of component as percentage” value (Example 12: freeze-dried cefodizime sodium, citrate pH 6.75, 7 days 0° C., in 100 mL 5% fructose + etimicin sulfate 200 mg, Time 6 h)?
A: 97.89%

Q: And the “amount of component as percentage” value (Example 12: freeze-dried cefodizime sodium, citrate pH 6.75, 7 days 0° C., in 100 mL 5% fructose + etimicin sulfate 200 mg, Time 8 h)?
A: 92.52%

Q: And the “amount of component as percentage” value (Example 18: cefodizime sodium 1 g, etimicin sulfate 200 mg, citrate pH 6.75, 200 mL water, room temperature, Time 0 h)?
A: 99.01%

Q: And the “amount of component as percentage” value (Example 18: cefodizime sodium 1 g, etimicin sulfate 200 mg, citrate pH 6.75, 200 mL water, room temperature, Time 1 h)?
A: 103.8%

Q: What about the “amount of component as percentage” value (Example 18: cefodizime sodium 1 g, etimicin sulfate 200 mg, citrate pH 6.75, 200 mL water, room temperature, Time 2 h) of the same molecule?
A: 98.33%

Q: And the “amount of component as percentage” value (Example 18: cefodizime sodium 1 g, etimicin sulfate 200 mg, citrate pH 6.75, 200 mL water, room temperature, Time 4 h)?
A: 98.99%

Q: What about the “amount of component as percentage” value (Example 18: cefodizime sodium 1 g, etimicin sulfate 200 mg, citrate pH 6.75, 200 mL water, room temperature, Time 6 h) of the same molecule?
A: 97.89%

Q: What about the “amount of component as percentage” value (Example 18: cefodizime sodium 1 g, etimicin sulfate 200 mg, citrate pH 6.75, 200 mL water, room temperature, Time 8 h) of the same molecule?
A: 92.52%

Q: For `NCC[C@H](O)C(=O)N[C@@H]1C[C@H](N)[C@@H](O[C@H]2O[C@H](CN)[C@@H](O)[C@H](O)[C@H]2O)[C@H](O)[C@H]1O[C@H]1O[C@H](CO)[C@@H](O)[C@H](N)[C@H]1O.O=S(=O)(O)O.O=S(=O)(O)O` [Amikacin sulfate, amikacin sulfate], which “amount of component as percentage” value (Example 5: freeze-dried cefoperazone sodium 4 g, sulbactam sodium 0.5 g, citrate pH 6.75, + amikacin sulfate 500 mg, 7 days 0° C., dissolved in 100 mL water, Time 0 h) is on record?
A: 98.98%

Q: What about the “amount of component as percentage” value (Example 5: freeze-dried cefoperazone sodium 4 g, sulbactam sodium 0.5 g, citrate pH 6.75, + amikacin sulfate 500 mg, 7 days 0° C., dissolved in 100 mL water, Time 1 h) of the same molecule?
A: 98.73%

Q: And the “amount of component as percentage” value (Example 5: freeze-dried cefoperazone sodium 4 g, sulbactam sodium 0.5 g, citrate pH 6.75, + amikacin sulfate 500 mg, 7 days 0° C., dissolved in 100 mL water, Time 2 h)?
A: 98.52%

Q: What about the “amount of component as percentage” value (Example 5: freeze-dried cefoperazone sodium 4 g, sulbactam sodium 0.5 g, citrate pH 6.75, + amikacin sulfate 500 mg, 7 days 0° C., dissolved in 100 mL water, Time 4 h) of the same molecule?
A: 98.41%

Q: What about the “amount of component as percentage” value (Example 5: freeze-dried cefoperazone sodium 4 g, sulbactam sodium 0.5 g, citrate pH 6.75, + amikacin sulfate 500 mg, 7 days 0° C., dissolved in 100 mL water, Time 6 h) of the same molecule?
A: 98.76%

Q: What about the “amount of component as percentage” value (Example 17: freeze-dried cefoperazone sodium 4 g, sulbactam sodium 1 g, citrate pH 6.75, 7 days 0° C., in 100 mL water, 10 mL + amikacin sulfate 40 mg, room temperature, Time 0 h) of the same molecule?
A: 99.91%

Q: And the “amount of component as percentage” value (Example 17: freeze-dried cefoperazone sodium 4 g, sulbactam sodium 1 g, citrate pH 6.75, 7 days 0° C., in 100 mL water, 10 mL + amikacin sulfate 40 mg, room temperature, Time 1 h)?
A: 99.50%

Q: What about the “amount of component as percentage” value (Example 17: freeze-dried cefoperazone sodium 4 g, sulbactam sodium 1 g, citrate pH 6.75, 7 days 0° C., in 100 mL water, 10 mL + amikacin sulfate 40 mg, room temperature, Time 2 h) of the same molecule?
A: 98.88%

Q: What about the “amount of component as percentage” value (Example 17: freeze-dried cefoperazone sodium 4 g, sulbactam sodium 1 g, citrate pH 6.75, 7 days 0° C., in 100 mL water, 10 mL + amikacin sulfate 40 mg, room temperature, Time 4 h) of the same molecule?
A: 99.45%

Q: What about the “amount of component as percentage” value (Example 17: freeze-dried cefoperazone sodium 4 g, sulbactam sodium 1 g, citrate pH 6.75, 7 days 0° C., in 100 mL water, 10 mL + amikacin sulfate 40 mg, room temperature, Time 6 h) of the same molecule?
A: 98.56%

Q: And the “amount of component as percentage” value (Example 17: freeze-dried cefoperazone sodium 4 g, sulbactam sodium 1 g, citrate pH 6.75, 7 days 0° C., in 100 mL water, 10 mL + amikacin sulfate 40 mg, room temperature, Time 8 h)?
A: 99.36%
